One assay deals with human JAK1 (Homo sapiens (Human), UniProt P23458). In words: JAK1 TR-FRET kinase assay. Conditions: TR-FRET, JAK1 2.5 nM. The assay is classed as biochemical. On the technique in general: TR-FRET usually uses a lanthanide donor and a delayed reading to cut background.
The target in the next assay is TYK2 JH2 domain (Homo sapiens (Human), UniProt P29597). In words: TYK2 JH2 NanoBRET assay. The assay is classed as binding. The settings on record: Table 20, read-out: TYK2 IC50. In a few lines:
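HEK293T cells transiently expressing NanoLuc-TYK2 JH2 fusion, incubated 2 h with compound and NanoBRET K10 tracer (0.5 µM final). Target engagement read as acceptor/donor BRET ratio after Nano-Glo substrate plus extracellular NanoLuc inhibitor.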
For orientation: Bioluminescence resonance energy transfer reports proximity on the nanometre scale.

In the next assay the target is human JAK3 (Homo sapiens (Human), UniProt P52333). The assay is described as follows: JAK3 TR-FRET kinase assay. The assay is classed as biochemical. Conditions: JAK3 0.0125 nM.
A further assay concerns the target human JAK2 (Homo sapiens (Human), UniProt O60674). The assay is described as follows: JAK2 TR-FRET kinase assay. The assay is classed as biochemical. The settings on record: JAK2 0.025 nM.

As usually defined, the IC50 is the concentration that gives 50% inhibition.

Bounds are passed on as bounds.

Sequence of human JAK1 (P23458 whole entry, the tested form may be a part): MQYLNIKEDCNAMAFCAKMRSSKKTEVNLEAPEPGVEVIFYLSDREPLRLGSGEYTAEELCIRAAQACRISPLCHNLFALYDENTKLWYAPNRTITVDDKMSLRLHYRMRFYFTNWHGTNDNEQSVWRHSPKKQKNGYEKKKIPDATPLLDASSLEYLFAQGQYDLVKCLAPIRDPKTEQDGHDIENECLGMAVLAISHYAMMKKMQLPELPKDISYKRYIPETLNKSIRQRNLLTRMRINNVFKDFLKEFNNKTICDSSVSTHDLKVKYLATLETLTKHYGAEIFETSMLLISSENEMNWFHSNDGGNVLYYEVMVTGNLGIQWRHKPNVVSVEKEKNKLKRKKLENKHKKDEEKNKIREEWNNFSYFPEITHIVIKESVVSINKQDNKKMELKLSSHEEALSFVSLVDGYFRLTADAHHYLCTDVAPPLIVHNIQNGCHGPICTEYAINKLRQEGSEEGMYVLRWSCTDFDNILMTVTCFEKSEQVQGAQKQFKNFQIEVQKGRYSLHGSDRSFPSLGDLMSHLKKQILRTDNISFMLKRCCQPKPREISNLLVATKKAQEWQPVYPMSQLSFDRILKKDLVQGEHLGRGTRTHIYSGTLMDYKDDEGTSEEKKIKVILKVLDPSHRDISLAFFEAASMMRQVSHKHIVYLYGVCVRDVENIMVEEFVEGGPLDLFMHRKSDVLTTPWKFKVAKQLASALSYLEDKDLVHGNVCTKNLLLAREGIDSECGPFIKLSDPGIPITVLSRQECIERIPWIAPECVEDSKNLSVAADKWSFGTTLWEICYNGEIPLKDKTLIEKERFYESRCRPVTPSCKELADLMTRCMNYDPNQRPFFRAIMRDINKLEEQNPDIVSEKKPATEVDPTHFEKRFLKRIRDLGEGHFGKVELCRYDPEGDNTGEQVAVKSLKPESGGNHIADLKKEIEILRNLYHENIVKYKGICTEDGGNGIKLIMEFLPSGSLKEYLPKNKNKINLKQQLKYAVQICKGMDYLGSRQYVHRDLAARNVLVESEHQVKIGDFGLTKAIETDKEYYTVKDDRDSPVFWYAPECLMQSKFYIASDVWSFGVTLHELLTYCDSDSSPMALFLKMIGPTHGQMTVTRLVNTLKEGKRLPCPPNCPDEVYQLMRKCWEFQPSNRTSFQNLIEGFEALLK
Sequence of human JAK2 (O60674 whole entry): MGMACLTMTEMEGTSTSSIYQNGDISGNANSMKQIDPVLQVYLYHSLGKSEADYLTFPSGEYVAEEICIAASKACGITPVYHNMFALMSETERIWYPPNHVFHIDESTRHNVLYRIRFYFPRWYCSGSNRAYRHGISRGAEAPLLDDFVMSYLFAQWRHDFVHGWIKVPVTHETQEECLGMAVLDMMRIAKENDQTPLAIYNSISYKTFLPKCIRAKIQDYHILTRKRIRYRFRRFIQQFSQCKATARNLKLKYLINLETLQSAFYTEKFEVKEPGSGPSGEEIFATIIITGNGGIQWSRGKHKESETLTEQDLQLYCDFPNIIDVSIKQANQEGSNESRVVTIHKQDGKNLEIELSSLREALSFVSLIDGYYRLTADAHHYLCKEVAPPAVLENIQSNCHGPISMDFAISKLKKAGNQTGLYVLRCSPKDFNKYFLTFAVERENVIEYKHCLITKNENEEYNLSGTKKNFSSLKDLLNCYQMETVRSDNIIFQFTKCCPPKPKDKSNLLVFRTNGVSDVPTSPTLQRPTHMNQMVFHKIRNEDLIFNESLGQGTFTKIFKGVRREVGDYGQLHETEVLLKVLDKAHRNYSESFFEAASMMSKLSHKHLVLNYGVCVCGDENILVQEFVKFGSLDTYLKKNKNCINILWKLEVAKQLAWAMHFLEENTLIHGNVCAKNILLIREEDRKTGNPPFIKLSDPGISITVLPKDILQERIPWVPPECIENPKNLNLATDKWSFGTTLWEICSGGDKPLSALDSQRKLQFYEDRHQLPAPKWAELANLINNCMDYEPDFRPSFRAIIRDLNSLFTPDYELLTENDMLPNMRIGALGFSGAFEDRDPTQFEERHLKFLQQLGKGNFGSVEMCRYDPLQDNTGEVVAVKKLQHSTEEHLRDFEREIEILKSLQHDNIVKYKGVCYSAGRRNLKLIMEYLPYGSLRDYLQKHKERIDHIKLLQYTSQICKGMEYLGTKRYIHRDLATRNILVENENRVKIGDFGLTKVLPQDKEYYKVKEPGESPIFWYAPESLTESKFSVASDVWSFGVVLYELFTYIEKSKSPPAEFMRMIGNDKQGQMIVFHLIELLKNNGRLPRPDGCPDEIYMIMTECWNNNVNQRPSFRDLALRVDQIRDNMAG
Sequence of human JAK3 (P52333 whole entry): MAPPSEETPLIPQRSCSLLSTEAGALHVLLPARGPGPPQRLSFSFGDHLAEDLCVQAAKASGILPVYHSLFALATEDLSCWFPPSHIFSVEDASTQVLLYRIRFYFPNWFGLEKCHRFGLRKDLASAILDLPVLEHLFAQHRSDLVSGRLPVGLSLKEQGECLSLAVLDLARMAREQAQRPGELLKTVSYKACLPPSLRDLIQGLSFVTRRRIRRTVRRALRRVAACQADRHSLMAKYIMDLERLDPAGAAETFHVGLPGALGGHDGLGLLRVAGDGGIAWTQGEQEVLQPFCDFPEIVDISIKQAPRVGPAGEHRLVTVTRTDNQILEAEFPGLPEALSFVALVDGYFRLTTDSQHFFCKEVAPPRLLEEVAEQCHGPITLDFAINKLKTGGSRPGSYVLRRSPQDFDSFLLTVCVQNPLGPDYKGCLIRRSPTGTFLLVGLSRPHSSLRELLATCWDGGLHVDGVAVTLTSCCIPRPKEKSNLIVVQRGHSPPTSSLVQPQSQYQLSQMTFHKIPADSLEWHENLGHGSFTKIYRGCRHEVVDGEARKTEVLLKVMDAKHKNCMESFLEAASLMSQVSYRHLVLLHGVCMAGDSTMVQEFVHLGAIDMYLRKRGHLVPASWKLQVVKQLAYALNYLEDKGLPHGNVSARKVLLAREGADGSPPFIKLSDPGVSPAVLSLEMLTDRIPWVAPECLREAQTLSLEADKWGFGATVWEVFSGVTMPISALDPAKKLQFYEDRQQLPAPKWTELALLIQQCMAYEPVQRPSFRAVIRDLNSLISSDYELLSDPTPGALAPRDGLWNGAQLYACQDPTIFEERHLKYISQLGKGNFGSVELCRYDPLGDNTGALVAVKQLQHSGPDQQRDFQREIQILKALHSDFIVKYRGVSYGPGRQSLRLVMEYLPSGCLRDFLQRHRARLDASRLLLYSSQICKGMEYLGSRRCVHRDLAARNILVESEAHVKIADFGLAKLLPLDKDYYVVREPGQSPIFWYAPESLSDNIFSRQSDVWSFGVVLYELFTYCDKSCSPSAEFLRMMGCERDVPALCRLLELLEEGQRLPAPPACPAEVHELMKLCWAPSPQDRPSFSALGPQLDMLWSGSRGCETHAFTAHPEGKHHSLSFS
Sequence of TYK2 JH2 domain (P29597 589-875): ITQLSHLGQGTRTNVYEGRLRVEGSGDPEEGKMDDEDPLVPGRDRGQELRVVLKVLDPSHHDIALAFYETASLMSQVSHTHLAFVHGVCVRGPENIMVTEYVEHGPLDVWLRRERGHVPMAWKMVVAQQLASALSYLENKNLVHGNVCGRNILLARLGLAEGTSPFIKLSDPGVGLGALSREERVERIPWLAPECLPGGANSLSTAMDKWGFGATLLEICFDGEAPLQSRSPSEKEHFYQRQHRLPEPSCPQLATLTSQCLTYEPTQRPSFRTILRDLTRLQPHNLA

Consider `COc1c(-c2ncn(C)n2)ccnc1Nc1cc(Nc2ccc(-c3ncn(C)n3)cn2)ncc1C(=O)C1CC1` [Compound 15O], for which the IC50 against human JAK1 is at least 500 nM; on TYK2 JH2 domain it was 5 to 50 nM; at human JAK3, at least 500 nM; at human JAK2, at least 500 nM.
Consider `CCC(=O)c1cnc(Nc2ccc(-n3ccnc3)cn2)cc1Nc1nccc(-c2ncn(C)n2)c1OC` [Compound 15P], for which the IC50 on human JAK1 is at least 500 nM; on TYK2 JH2 domain, under 5 nM; at human JAK3, at least 500 nM; against human JAK2 it was at least 500 nM.
As to `COc1c(Nc2cc(Nc3ccc(-n4ccnc4)cn3)ncc2C(=O)C2CC2)cccc1-c1ncn(C)n1` [Compound 15Q], the IC50 was at least 500 nM on human JAK1, under 5 nM at TYK2 JH2 domain, at least 500 nM at human JAK3 and at least 500 nM at human JAK2.
For `COc1c(-c2ncn(C)n2)ccnc1Nc1cc(Nc2ccc(-n3ccnc3)cn2)ncc1C(=O)C1CC1` [Compound 15R], the IC50 on human JAK1 was at least 500 nM; at TYK2 JH2 domain it was 5 to 50 nM; at human JAK3, at least 500 nM; at human JAK2 it was at least 500 nM.
In the case of `CCC(=O)c1cnc(Nc2ccn(-c3ccccc3)c(=O)n2)cc1Nc1nccc(-c2ncn(C)n2)c1OC` [Compound 15S], the IC50 at human JAK1 is at least 500 nM; at TYK2 JH2 domain, 5 to 50 nM; on human JAK3, at least 500 nM; against human JAK2, at least 500 nM.
As for `[2H]C([2H])([2H])CC(=O)c1cnc(Nc2ccn(-c3ccccc3)c(=O)n2)cc1Nc1cccc(-c2ncn(C)n2)c1OC` [Compound 15T], the IC50 on human JAK1 was at least 500 nM; on TYK2 JH2 domain, under 5 nM; against human JAK3, at least 500 nM; against human JAK2 it was at least 500 nM.
For `CCC(=O)c1cnc(Nc2ccc(-n3ccccc3=O)cn2)cc1Nc1nccc(-c2ncn(C)n2)c1OC` [Compound 15U], the IC50 against human JAK1 was at least 500 nM; at TYK2 JH2 domain it was 5 to 50 nM; on human JAK3 it was at least 500 nM; against human JAK2, at least 500 nM.
For the compound `CCC(=O)c1cnc(Nc2ccc(-n3ccncc3=O)cn2)cc1Nc1cccc(-c2ncn(C)n2)c1OC` [Compound 15V], the IC50 at human JAK1 was at least 500 nM; at TYK2 JH2 domain, under 5 nM; on human JAK3, at least 500 nM; at human JAK2 it was at least 500 nM.
In the case of `CCC(=O)c1cnc(Nc2ccc(-c3ccc[nH]c3=O)cn2)cc1Nc1cccc(-c2ncn(C)n2)c1OC` [Compound 15W], the half-maximal inhibitory concentration (IC50) on human JAK1 was at least 500 nM; on TYK2 JH2 domain, 5 to 50 nM; at human JAK3 it was 50 to 500 nM; at human JAK2, 50 to 500 nM.
For `CCC(=O)c1cnc(Nc2ccc(-n3ccnc(C)c3=O)cn2)cc1Nc1cccc(-c2ncn(C)n2)c1OC` [Compound 15X], the IC50 at human JAK1 was at least 500 nM; at TYK2 JH2 domain it was 5 to 50 nM; against human JAK3, 50 to 500 nM; on human JAK2, 50 to 500 nM.
Turning to `CCC(=O)c1cnc(Nc2ccc(-n3cnccc3=O)cn2)cc1Nc1cccc(-c2ncn(C)n2)c1OC` [Compound 15Y], the IC50 was at least 500 nM at human JAK1, under 5 nM at TYK2 JH2 domain, 50 to 500 nM at human JAK3 and 50 to 500 nM against human JAK2.
Regarding `CCC(=O)c1cnc(Nc2ccc(-n3nc(C)ccc3=O)cn2)cc1Nc1cccc(-c2ncn(C)n2)c1OC` [Compound 15Z], the IC50 on human JAK1 was at least 500 nM; at TYK2 JH2 domain, 5 to 50 nM; on human JAK3, at least 500 nM; against human JAK2, at least 500 nM.
For the compound `CCC(=O)c1cnc(Nc2ccc(-c3cccn(C)c3=O)cn2)cc1Nc1cccc(-c2ncn(C)n2)c1OC` [Compound 16A, 6′-((4-((2-methoxy-3-(1-methyl-1H-1,2,4-triazol-3-yl)phenyl)amino)-5-propionylpyridin-2-yl)amino)-1-methyl-[3,3′-bipyridin]-2(1H)-one], the IC50 against human JAK1 was at least 500 nM; on TYK2 JH2 domain, under 5 nM; on human JAK3 it was 50 to 500 nM; against human JAK2, 50 to 500 nM.
As to `CCC(=O)c1cnc(Nc2cc(CN(C)C)ncn2)cc1Nc1cccc(-c2ncn(C)n2)c1OC` [Compound 17A, 1-(6-((6-((dimethylamino)methyl)pyrimidin-4-yl)amino)-4-((2-methoxy-3-(1-methyl-1H-1,2,4-triazol-3-yl)phenyl)amino)pyridin-3-yl)propan-1-one], the IC50 is at least 500 nM on human JAK1, under 5 nM on TYK2 JH2 domain, at least 500 nM at human JAK3 and at least 500 nM against human JAK2.
In the case of `CCC(=O)c1cnc(Nc2ccc(O[C@@H]3CCOC3)c(C)n2)cc1Nc1cccc(-c2ncn(C)n2)c1OC` [Compound 18AAAA], the 50% inhibitory concentration (IC50) is at least 500 nM against human JAK1, under 5 nM at TYK2 JH2 domain, 50 to 500 nM at human JAK3 and 50 to 500 nM against human JAK2.
As to `CCC(=O)c1cnc(Nc2cnc(O[C@H]3CN(C)C[C@@H]3F)cn2)cc1Nc1cccc(-c2ncn(C)n2)c1OC` [Compound 18AAA], the IC50 on human JAK1 was at least 500 nM; on TYK2 JH2 domain it was 5 to 50 nM; at human JAK3, at least 500 nM; against human JAK2, at least 500 nM.
For `CCC(=O)c1cnc(Nc2ccc(OCC3COC3)cn2)cc1Nc1cccc(-c2ncn(C)n2)c1OC` [Compound 18AA], the IC50 was at least 500 nM against human JAK1, under 5 nM at TYK2 JH2 domain, 50 to 500 nM at human JAK3 and 50 to 500 nM on human JAK2.
As for `CCC(=O)c1cnc(Nc2ncc(OC3COC3)cc2F)cc1Nc1cccc(-c2ncn(C)n2)c1OC` [Compound 18BBBB], the IC50 against human JAK1 is at least 500 nM; at TYK2 JH2 domain, 5 to 50 nM; against human JAK3, at least 500 nM; against human JAK2, at least 500 nM.
On to `CCC(=O)c1cnc(Nc2cnc(O[C@H]3CN(C)C[C@H]3F)cn2)cc1Nc1cccc(-c2ncn(C)n2)c1OC` [Compound 18BBB], for which the IC50 was at least 500 nM at human JAK1, 5 to 50 nM at TYK2 JH2 domain, at least 500 nM against human JAK3 and at least 500 nM on human JAK2.
Turning to `CCC(=O)c1cnc(Nc2ccc(O[C@@H]3CCOC3)cn2)cc1Nc1cccc(-c2ncn(C)n2)c1OC` [Compound 18BB], the half-inhibitory concentration (IC50) is at least 500 nM against human JAK1, under 5 nM at TYK2 JH2 domain, at least 500 nM at human JAK3 and at least 500 nM against human JAK2.
In the case of `COc1c(Nc2cc(Nc3ccc(OCCO)cn3)ncc2C(=O)C2CC2)cccc1-c1ncn(C)n1` [Compound 18B], the 50% inhibitory concentration (IC50) was at least 500 nM at human JAK1, under 5 nM at TYK2 JH2 domain, at least 500 nM at human JAK3 and at least 500 nM on human JAK2.
As for `CCC(=O)c1cnc(Nc2ncc(OCC3COC3)cc2F)cc1Nc1cccc(-c2ncn(C)n2)c1OC` [Compound 18CCCC], the IC50 is at least 500 nM at human JAK1, 50 to 500 nM at TYK2 JH2 domain, at least 500 nM at human JAK3 and at least 500 nM at human JAK2.
In the case of `CCC(=O)c1cnc(Nc2cnc(O[C@@H]3CCN(C)C3)cn2)cc1Nc1nccc(-c2ncn(C)n2)c1OC` [Compound 18CCC], the IC50 on human JAK1, on TYK2 JH2 domain, against human JAK3 and against human JAK2 was at least 500 nM throughout.
For the compound `CCC(=O)c1cnc(Nc2ccc(OCCN3CCCC3)nn2)cc1Nc1cccc(-c2ncn(C)n2)c1OC` [Compound 18CC], the IC50 on human JAK1 is at least 500 nM; on TYK2 JH2 domain, under 5 nM; on human JAK3, at least 500 nM; at human JAK2, at least 500 nM.
Take `COc1c(Nc2cc(Nc3ccc(OCCCO)cn3)ncc2C(=O)C2CC2)cccc1-c1ncn(C)n1` [Compound 18C]: the half-inhibitory concentration (IC50) is at least 500 nM against human JAK1, under 5 nM on TYK2 JH2 domain, at least 500 nM at human JAK3 and at least 500 nM on human JAK2.
Regarding `CCC(=O)c1cnc(Nc2ccc(OC3CN(C)C3)nn2)cc1Nc1cccc(-c2ncn(C)n2)c1OC` [Compound 18DDDD], the IC50 is at least 500 nM on human JAK1, 5 to 50 nM on TYK2 JH2 domain, at least 500 nM on human JAK3 and at least 500 nM against human JAK2.
For the compound `CCC(=O)c1cnc(Nc2ccc(OCCCN3CCCC3)nn2)cc1Nc1cccc(-c2ncn(C)n2)c1OC` [Compound 18DD], the IC50 was at least 500 nM against human JAK1, under 5 nM at TYK2 JH2 domain, at least 500 nM at human JAK3 and at least 500 nM at human JAK2.
For the compound `CCC(=O)c1cnc(Nc2ccc(OCCOC)cn2)cc1Nc1cccc(-c2ncn(C)n2)c1OC` [Compound 18D], the IC50 at human JAK1 was at least 500 nM; at TYK2 JH2 domain, 5 to 50 nM; on human JAK3, 50 to 500 nM; at human JAK2, at least 500 nM.
With `CCC(=O)c1cnc(Nc2cnc(OC3CCN(C)CC3)cn2)cc1Nc1cccc(-c2ncn(C)n2)c1OC` [Compound 18EEE], the IC50 on human JAK1 is at least 500 nM; at TYK2 JH2 domain, under 5 nM; at human JAK3, at least 500 nM; at human JAK2 it was at least 500 nM.
Consider `CCC(=O)c1cnc(Nc2ccc(OC3CCN(C)CC3)nn2)cc1Nc1cccc(-c2ncn(C)n2)c1OC` [Compound 18EE], for which the half-inhibitory concentration (IC50) against human JAK1 is at least 500 nM; at TYK2 JH2 domain, under 5 nM; against human JAK3, at least 500 nM; on human JAK2, at least 500 nM.
Turning to `CCC(=O)c1cnc(Nc2ccc(OCC(C)(C)O)cn2)cc1Nc1cccc(-c2ncn(C)n2)c1OC` [Compound 18E], the IC50 at human JAK1 is at least 500 nM; on TYK2 JH2 domain, under 5 nM; against human JAK3, 50 to 500 nM; against human JAK2 it was 50 to 500 nM.
`CCC(=O)c1cnc(Nc2ccc(O[C@@H]3CCN(C)C3)nn2)cc1Nc1cccc(-c2ncn(C)n2)c1OC` [Compound 18FF]: the IC50 is at least 500 nM against human JAK1, 5 to 50 nM on TYK2 JH2 domain, at least 500 nM against human JAK3 and at least 500 nM against human JAK2.
As to `CCC(=O)c1cnc(Nc2ccc(OC[C@@H](O)CO)cn2)cc1Nc1cccc(-c2ncn(C)n2)c1OC` [Compound 18F], the IC50 at human JAK1 was at least 500 nM; at TYK2 JH2 domain it was 5 to 50 nM; at human JAK3 it was 50 to 500 nM; against human JAK2, at least 500 nM.
As to `CCC(=O)c1cnc(Nc2cnc(OCCN3CCOCC3)cn2)cc1Nc1cccc(-c2ncn(C)n2)c1OC` [Compound 18GGG], the IC50 was at least 500 nM against human JAK1, 5 to 50 nM at TYK2 JH2 domain, at least 500 nM on human JAK3 and at least 500 nM against human JAK2.

Source of the values: patent US20230295119A1, “SUBSTITUTED PYRIDINES FOR THE TREATMENT OF INFLAMMATORY DISEASES” (GOSSAMER BIO SERVICES, INC., priority 2020, published 2023).
